Source: patent US20190201586A1, “Three-Dimensional Tissue Matrix Scaffold System” (Washington State University, priority 2016, published 2019)

Experiments:
Assay type in all cases: cell-based
[1] = test system: BT474 breast cancer cells; assay: CCK-8 proliferation assay and drug screening, BT474 cells in 2D culture and on 3D scaffolds; conditions: 1 μM; for cell proliferation after administration of the drug: on day 7, 9, 11, 13, 3D and 2D cultures; for response of the cancer cells to the drug in cell-laden TMS cultures compared to the other 3D culture conditions: TMS vs collagen, IrECM, PLGA scaffolds
Method: (§1) Proliferation assay in 3D culture. The proliferation of the cells grown on the different scaffolds or treated with the different drugs was measured using the CCK-8 reagent at the time points indicated. Briefly, the cell-laden scaffolds (triplicates for each condition) were cultured in 96-well plates. CCK-8 solution was added at a 1:10 dilution into the cultures. The colorimetric absorbance of the supernatants of the cultures that reflects the cell proliferation rate was measured at 490 nm using a Synergy 2 microplate reader (BioTek) after 4 hours of incubation (37° C., 5% CO2). Error bars represent standard deviations (s.d.) of the means of three independent experiments.
(§2) Drug screening. The T47D and BT474 breast cancer cells were used to test the efficacies of the two anticancer drugs, HT and Taxol, in 2D and 3D cultures. 2×10^3 cells/well and 1×10^5 cells/scaffold (in triplicates) were seeded on 2D surface and the 3D scaffolds, respectively, and cultured in 96-well plates for 7 days. The drugs at the final concentration of 1 μM were administered separately to the cultures on day 7, 9, 11, 13 of culture for 24 hours, and cell survival as well as proliferation status assessed on day 1, 8, 10, 12, 14, 21 using the CCK-8 reagent and the Live/Dead assay, respectively. After the measurement on day 14, a seven-day recovering period was included to evaluate the post-treatment proliferation potential of the cells. Three independent experiments were performed for statistical significance.

[2] = test system: T47D cells; assay: Live/Dead Cell staining of scaffold cultures after drug treatment; conditions: T47D-laden DBT-TMS and PLGA scaffolds; 1 μM
Method: Live/Dead Cell staining. The survival of the cells grown on the 3D scaffolds were assessed using the Live/Dead Cell Staining kit. The cell-carrying scaffolds at different time points or under different treatment conditions were collected and manually sectioned at 250-500 μm of thickness. The sections were washed twice with 1×PBS (37° C.), incubated in the staining solution (2 μM of calcein-AM and 4 μM of EhtD-III in 1×PBS) at RT for 45 minutes, and imaged using fluorescence microscopy. Calcein-AM stains live cells green (under EGFP filter), while EthD-III stains dead cells red (under Texas Red filter).
as §2, with “Three independent experiments were performed for statistical significance.” left out

[3] = test system: T47D breast cancer cells; assay: CCK-8 proliferation assay and drug screening, T47D cells in 2D culture and on 3D scaffolds; conditions: 1 μM; for cell proliferation after administration of the drug: on day 7, 9, 11, 13, 3D and 2D cultures; for response of the cancer cells to the drug in cell-laden TMS cultures compared to the other 3D culture conditions: TMS vs collagen, IrECM, PLGA scaffolds
Method: as §1, §2

SMILES	cell proliferation after administration of the drug [1]	response of the cancer cells to the drug in cell-laden TMS cultures compared to the other 3D culture conditions [1]	cell proliferation and clustering over the period of treatment (Live/Dead staining) [2]	cell proliferation after administration of the drug [3]	response of the cancer cells to the drug in cell-laden TMS cultures compared to the other 3D culture conditions [3]
CC(=O)O[C@H]1C(=O)[C@@]2(C)[C@H]([C@H](OC(=O)c3ccccc3)[C@]3(O)C[C@H](OC(=O)[C@H](O)[C@@H](NC(=O)c4ccccc4)c4ccccc4)C(C)=C1C3(C)C)[C@]1(OC(C)=O)CO[C@@H]1C[C@@H]2O [Taxol, Paclitaxel]	time-dependently inhibited cell proliferation	lower response	markedly attenuated	time-dependently inhibited cell proliferation	lower response
CC/C(=C(\c1ccc(O)cc1)c1ccc(OCCN(C)C)cc1)c1ccccc1 [HT, (Z)-4-Hydroxytamoxifen]	time-dependently inhibited cell proliferation	lower response	markedly attenuated	time-dependently inhibited cell proliferation	lower response
